Data on five compounds can be found in ChEMBL document CHEMBL3120105, “Identification of weak points of hepatitis C virus NS3 protease inhibitors using surface plasmon resonance biosensor-based interaction kinetic analysis and genetic variants” (J Med Chem, 2014).

Broadly, the Kd is the free concentration of one partner at which half of the binding sites on the other are occupied at equilibrium, for simple one-to-one binding.

Experiment [1] in a line: Inhibition of Hepatitis C virus genotype 3a full-length NS3 protease assessed as overall/observed affinity by surface plasmon resonance biosensor-based interaction kinetic analysis. The arrangement: species or system Hepatitis C virus subtype 3a. In general terms: Surface plasmon resonance follows binding to a sensor surface in real time, without labels.
The nature of experiment [2]: Inhibition of Hepatitis C virus genotype 1b NS3 protease domain assessed as overall/observed affinity by surface plasmon resonance biosensor-based interaction kinetic analysis. The arrangement: species or system Hepatitis C virus subtype 1b.
Experiment [3] in a line: Inhibition of Hepatitis C virus genotype 1b full-length NS3/NS4A protease assessed as overall/observed affinity by surface plasmon resonance biosensor-based interaction kinetic analysis. On the set-up: species or system Hepatitis C virus subtype 1b.
Experiment [4] in a line: Inhibition of Hepatitis C virus genotype 1b full-length NS3 protease assessed as overall/observed affinity by surface plasmon resonance biosensor-based interaction kinetic analysis. The arrangement: species or system Hepatitis C virus subtype 1b.
The nature of experiment [5]: Inhibition of Hepatitis C virus genotype 1a full-length NS3/NS4A protease assessed as overall/observed affinity by surface plasmon resonance biosensor-based interaction kinetic analysis. The arrangement: species or system Hepatitis C virus subtype 1a.
Experiment [6] is described as follows: Inhibition of Hepatitis C virus genotype 1a full-length NS3 protease assessed as overall/observed affinity by surface plasmon resonance biosensor-based interaction kinetic analysis. The arrangement: species or system Hepatitis C virus subtype 1a.
Experiment [7] in a line: Inhibition of Hepatitis C virus genotype 3a full-length NS3 protease assessed as equilibrium dissociation constant by surface plasmon resonance biosensor-based interaction kinetic analysis. On the set-up: species or system Hepatitis C virus subtype 3a.
The nature of experiment [8]: Inhibition of Hepatitis C virus genotype 1b NS3 protease domain assessed as equilibrium dissociation constant by surface plasmon resonance biosensor-based interaction kinetic analysis. The arrangement: species or system Hepatitis C virus subtype 1b.
The nature of experiment [9]: Inhibition of Hepatitis C virus genotype 1b full-length NS3/NS4A protease assessed as equilibrium dissociation constant by surface plasmon resonance biosensor-based interaction kinetic analysis. The arrangement: species or system Hepatitis C virus subtype 1b.
Experiment [10] in a line: Inhibition of Hepatitis C virus genotype 1b full-length NS3 protease assessed as equilibrium dissociation constant by surface plasmon resonance biosensor-based interaction kinetic analysis. On the set-up: species or system Hepatitis C virus subtype 1b.
A short description of experiment [11]: Inhibition of Hepatitis C virus genotype 1a full-length NS3/NS4A protease assessed as equilibrium dissociation constant by surface plasmon resonance biosensor-based interaction kinetic analysis. The arrangement: species or system Hepatitis C virus subtype 1a.
A short description of experiment [12]: Inhibition of Hepatitis C virus genotype 1a full-length NS3 protease assessed as equilibrium dissociation constant by surface plasmon resonance biosensor-based interaction kinetic analysis. The arrangement: species or system Hepatitis C virus subtype 1a.

Where a SMILES comes first, the peptide text is derived from it. [ ]: non-standard residue; d: D form. dGla = N[C@H](CC(C(=O)O)C(=O)O)C(=O)O; Cha = N[C@@H](CC1CCCCC1)C(=O)O

Consider `CC[C@H](C)[C@H](NC(=O)[C@H](CC(C)C)NC(=O)[C@@H](CC(C(=O)O)C(=O)O)NC(=O)[C@H](CC(=O)O)NC(C)=O)C(=O)N[C@@H](CC1CCCCC1)C(=O)N[C@@H](CS)C(=O)O` (Ac-D[dGla]LI[Cha]C-OH), for which the Kd in experiment [1] stood at 870 nM; in [2], 3300 nM; in [3], 2000 nM; in experiment [4], 5600 nM; in experiment [5], 17000 nM; in experiment [6], 200 nM. For the same compound, the Kd was 1400 nM in [7]; 7200 nM in experiment [8]; 5800 nM in experiment [9]; 7200 nM in [10]; 36000 nM in [11]; 3900 nM in [12].
As for `CC(C)(C)NC(=O)N[C@H](C(=O)N1C[C@H]2[C@@H]([C@H]1C(=O)NC(CC1CCC1)C(=O)C(N)=O)C2(C)C)C(C)(C)C` (stereo partly specified) [BOCEPREVIR], the Kd in experiment [1] turned out to be 3.9 nM; in experiment [2] it was 3200 nM; in experiment [3], 38 nM; in [4], 90 nM; in [7], 1700 nM; in experiment [8] it was 16000 nM. For the same compound, the equilibrium dissociation constant (Kd) in experiment [9] worked out at 7700 nM; in experiment [10], 16000 nM.
In the case of `COc1ccc2c(O[C@@H]3C[C@H]4C(=O)N[C@]5(C(=O)O)C[C@H]5/C=C\CCCCC[C@H](NC(=O)OC5CCCC5)C(=O)N4C3)cc(-c3csc(NC(C)C)n3)nc2c1` [CILUPREVIR], the Kd in experiment [1] stood at 160 nM; in experiment [2], 2.5 nM; in experiment [3], 71 nM; in [4], 67 nM; in experiment [5], 2.1 nM; in experiment [6] it was 1.3 nM. Further, the Kd is 3300 nM in experiment [7]; 7.3 nM in experiment [8]; 71 nM in experiment [9]; 220 nM in experiment [10]; 2.1 nM in [11]; 3 nM in [12].
With `CC(C)(C)OC(=O)N[C@H]1CCCCC/C=C\[C@@H]2C[C@@]2(C(=O)NS(=O)(=O)C2CC2)NC(=O)[C@@H]2C[C@@H](OC(=O)N3Cc4cccc(F)c4C3)CN2C1=O` [DANOPREVIR], the Kd in [1] was 0.52 nM; in experiment [2] it was 10000 nM; in [3], 6.5 nM; in experiment [4] it was 1.6 nM; in [5], 1.6 nM; in experiment [6] it was 0.13 nM. Besides, the Kd was 21 nM in [7]; 19000 nM in [8]; 6.5 nM in [9]; 1.6 nM in [10]; 4 nM in experiment [11]; 2.5 nM in experiment [12].
With `CCC[C@H](NC(=O)[C@@H]1[C@H]2CCC[C@H]2CN1C(=O)[C@@H](NC(=O)[C@@H](NC(=O)c1cnccn1)C1CCCCC1)C(C)(C)C)C(=O)C(=O)NC1CC1` [TELAPREVIR], the Kd in [1] was found to be 1000 nM; in [2], 3000 nM; in experiment [3] it was 66 nM; in experiment [4], 8.5 nM; in experiment [5], 17 nM; in experiment [6] it was 340 nM. The equilibrium dissociation constant (Kd) came to 66000 nM in experiment [7]; 4100 nM in [8]; 67 nM in experiment [9]; 8.6 nM in experiment [10]; 14000 nM in experiment [11]; 2000 nM in experiment [12].
